Common to all, as to assay type: cell-based, human
One data set deals with HepG2 cells. Kind of data set: MTT cell viability experiment, effect of treatment time (oleic acid NAFLD cell model). Conditions: for cell viability among several other groups of treatment time: other treatment times (0, 12, 24, 48 h); for cell viability: treated for 6 h, FIG. 3; for cytotoxicity with the increase in time: treatment up to 48 h. Here is the method:
The HepG2 cells were seeded into a 96-well culture plate at 1×10^4 cells per well, incubated in a DMEM culture medium containing 10% fetal bovine serum for 12 h until complete confluence of the cells, and then the culture medium was replaced by respective concentrations of 0, 0.5, 1, 1.5, 2, 2.5, 3, 3.5, 4 mM of oleic acid formulated with a serum-free culture medium to treat the cells for 0, 24, 48, and 72 hours, with 4 replicate wells being set for each concentration. After the completion of the incubation, 10 μL of a freshly prepared MTT solution at a final concentration of 5 mg/mL was added into each well and the culture was continued for 4 h. Then, the liquid in the culture well was pipetted off to terminate the reaction. Each well was added with 100 μL of DMSO, and shaken fully on a plate shaker for […] such that the crystalline was fully dissolved, and an A490 absorbance was measured on a microplate reader. The cell proliferation viability was calculated according to the following formula.
Cell proliferation viability (%)=(the OD of drug group/the OD of blank group)×100%
1. The culture, model establishment and experimental steps of the cells were operated according to 1.2.1. When the cells were cultured to the confluence of 70%, the cells were treated with 0.5 mM for 24 h to establish a cell model of nonalcoholic fatty liver disease. The anthocyanin compound mother liquor was diluted to 10 μM to treat the cells for 0, 6, 12, 24, and 48 h. The MTT cell proliferation viability experiment determined the optimal dosing time.

For data set [1], the system named is high-fat HepG2 cells. Kind of data set: Total cholesterol (TC) content in the cells, TC kit. The note with it: for level of TC in a high fat cell: FIGS. 4A, 5A; for level of TC, compared with control group and low dose group: medium and high doses. Here is the method: (§1) 2. The culture, model establishment and experimental steps of the cells were operated according to the above steps. The anthocyanin compound mother liquor was diluted to 0, 0.1, 1, 10, 50, and 100 μM to treat the high-fat HepG2 cells, respectively.
(§2) 3. The culture solution was pipetted off, gently washed with PBS for 3 times, and added with trypsin to digest the cells for 1 min The cell suspension was pipetted into a 1.5 mL sterile EP tube, centrifuged at 1000 rpm for 10 minutes, the supernatant was discarded, the pellet was added with an appropriate amount of PBS, ultrasonically crushed under the condition of an ice-water bath, and the prepared homogenate was not centrifuged and was ready for determination.
The total cholesterol (TC) content in the cells was determined according to the operating instructions of a TC kit. The protein content in the cells was determined by a BCA protein concentration kit, and the total cholesterol content in the cells was calibrated with the protein content.

The subject of data set [2] is high-fat HepG2 cells. Kind of data set: Cellular aspartate aminotransferase (AST) content, AST kit. Conditions: for level of AST in a high fat cell: FIGS. 4D, 5D; for level of AST, compared with control group and low dose group: medium and high doses. Here is the method: as §1, §2
The intracellular aspartate aminotransferase (AST) content was determined according to the operating instructions of an AST kit. 1.2.4 Effect of petunidin-3-O-β-D glucoside and malvidin-3-O-β-D glucose on autophagy of HepG2 cells

The test system of the next data set is APG7. As to the kind of experiment: Q-PCR, mRNA expression in oleic acid induced HepG2 cells. The note with it: for mRNA level of Apg7: high dose group; for mRNA expression of Apg7: low and medium doses. An excerpt:
(§3) The culture, model establishment and drug treatment manners of the cells were the same as those in 1.2.4. After the completion of the treatment, the cells were collected, total RNA was extracted, then cDNA was synthesized by reverse transcription, and finally, the change of the transcription level of autophagy-related genes of the HepG2 cell in a nonalcoholic fatty liver disease model under the actions of petunidin-3-O-β-D glucoside and malvidin-3-O-β-D glucoside was detected by the real-time fluorescent quantitative PCR method, where the following method can be adopted:
(§4) 1. After the completion of drug treatment, the cells were washed with PBS for 2 times, added with 1 mL Trizol per about 1×10^7 cells, then pipetted up and down with a 1 mL pipette gun (free of RNA enzymes) until the liquid was clear and had no cell aggregate, transferred into a […] RNA-enzyme-free EP tube, mixed well by inverting up and down for 10 times, and lysed for 5 minutes at room temperature.
(§5) 1. The first strand of cDNA was synthesized by using 800 ng of total RNA as a template and a total system of 20 μL. A nuclease-free PCR tube in the ice bath was added with the following reagents:
(§6) 5. A reverse transcription reaction was carried out on a PCR machine under the following conditions: incubation at 25° C. for 10 min, cDNA synthesis at 50° C. for 30 min, and reaction termination at 85° C. for 5 min. The resulting cDNA product was stored at −20° C.
(§7) 1. According to the gene sequence provided in the literature, the primers were synthesized by Sangon Biotech (Shanghai) Co., Ltd., and the primer sequences of β-actin, APG5L, Apg7, p62 , Bcl-1 and FASN were shown in the table below:
(§8) 2. The above reaction solution was placed into a real-time quantitative PCR instrument for amplification, and the PCR reaction conditions were as shown in the table below:
(§9) For the expression of the target gene, the difference was corrected with a reference gene β-actin by a Ct value comparison method, and the changing multiple was 2^−ΔΔCt. The calculation formula was: the changing multiple=2^−ΔΔCt, where ΔΔCt=(Ct of the target gene−Ct of the reference gene) the drug treatment group−(Ct of the target gene−Ct of the reference gene) control.

For a further data set, the system named is APGSL. The description is as above.
Excerpt: as §3, §4, §5, §6, §7, §8, §9

The next data set concerns Bcl-1. The description is as above.
Excerpt: as §3, §4, §5, §6, §7, §8, §9

A further data set deals with Fas. Described as above.
Excerpt: as §3, §4, §5, §6, §7, §8, §9

A further data set has as its system p62. Described as above. The note with it: for mRNA level of p62: high dose group; for mRNA expression of p62: low and medium doses.
Excerpt: as §3, §4, §5, §6, §7, §8, §9

This is an account of results in patent US20200368260A1, “USE OF BENZOPYRAN COMPOUND IN PREPARATION OF PRODUCT FOR REGULATING LIPID METABOLISM AND COMPOSITION OF THE SAME” (priority 2019, published 2020).

For `COc1cc(-c2[o+]c3cc(O)cc(O)c3cc2O[C@@H]2O[C@H](CO)[C@@H](O)[C@H](O)[C@H]2O)cc(O)c1O` [petunidin-3-O-β-D glucoside], in the data set on HepG2 cells, the “cell viability among several other groups of treatment time” value was “no significant difference”, the cell viability entry is “significantly increased” and the “cytotoxicity with the increase in time” value is given as “not cytotoxic”. Further, in the data set on high-fat HepG2 cells [1], the “level of TC in a high fat cell” value is on record as “reduce”; the “level of TC, compared with control group and low dose group” value is “very significant reduction”. For the same compound, in the data set with high-fat HepG2 cells [2], the “level of AST in a high fat cell” value is listed as “reduce”; the “level of AST, compared with control group and low dose group” value is “very significant reduction”. For the same compound, in the data set with APG7, the “mRNA level of Apg7” value is “up-regulate” and the “mRNA expression of Apg7” value is “reduced”. The “mRNA level of APGSL” value in the data set with APGSL is listed as “up-regulate”. In the data set with Bcl-1, the “mRNA expression level of Bcl-1” value is “significantly decrease”. Moreover, the “mRNA expression level of Fas” value in the data set with Fas is “significantly decrease”. In addition, in the data set with p62, the “mRNA level of p62” value is “up-regulate” and the “mRNA expression of p62” value was “reduced”.

Turning to `COc1cc(-c2[o+]c3cc(O)cc(O)c3cc2O[C@@H]2O[C@H](CO)[C@@H](O)[C@H](O)[C@H]2O)cc(OC)c1O` [malvidin-3-O-β-D glucoside], in the data set with HepG2 cells, the “cell viability among several other groups of treatment time” value was “no significant difference”, the cell viability entry is reported as “significantly increased” and the “cytotoxicity with the increase in time” value is on record as “not cytotoxic”. Moreover, in the data set on high-fat HepG2 cells [1], the “level of TC in a high fat cell” value was “reduce”; the “level of TC, compared with control group and low dose group” value was “very significant reduction”. Moreover, in the data set on high-fat HepG2 cells [2], the “level of AST in a high fat cell” value was “reduce”; the “level of AST, compared with control group and low dose group” value is recorded as “very significant reduction”. Further, in the data set on APG7, the “mRNA level of Apg7” value is given as “up-regulate” and the “mRNA expression of Apg7” value is “reduced”. Besides, the “mRNA level of APGSL” value in the data set with APGSL is “up-regulate”. Besides, in the data set with Bcl-1, the “mRNA expression level of Bcl-1” value was “significantly decrease”. In addition, in the data set on Fas, the “mRNA expression level of Fas” value is on record as “significantly decrease”. Also, in the data set with p62, the “mRNA level of p62” value was “up-regulate” and the “mRNA expression of p62” value is on record as “reduced”.
